Experimental data from US20220386608A1, “INSECTICIDAL MIXTURES OF BIFENTHRIN AND CHLORANTRANILIPROLE” (priority 2019, published 2022).

How the values were obtained:
Type in all cases: in vivo
E. heros adults = experiment: Example 5D, protocol D: mortality on sprayed soybean plants after 72 hours, synergy by Colby equation; parameters: concentration or dose not given beside the values; conditions: sprayed soybean plants (V2), Table 5H
Procedure: (§1) Ratios of bifenthrin to chlorantraniliprole were evaluated on various crops and target pests as indicated in the protocol disclosed Table 5A below where “Lab.” Refers to laboratory, “No. of Treat.” refers to number of treatments, and Total refers to the total number of insects tested. In each evaluation, foliar application was done, the insecticide action was contact/ingestion and 32 insects were evaluated in each treatment.
(§2) The treatment schedule shown in Table 5B was used where “dose” refers to application rate, “ratio” refers to the ratio of bifenthrin to chlorantraniliprole on an a.i. basis.
(§3) Synergy or antagonism was determined using the Colby Equation where: […]
(§4) X is the observed result for compound A at p grams a.e./ha. Y is the observed result for compound B at q grams a.e./ha. E is the expected result for a mixture of A and B at (p+q) g a.i./ha if there is no synergy or antagonism. If the observed value for the combination of A and B is greater than E (Obs>E) then synergy is indicated. If the observed value for the combination of A and B is less than E (Obs<E) then antagonism is indicated.
(§5) Morality on E. heros was evaluated according to protocols C and D (refer to Table 5B). In the evaluation method, insecticides (treatment numbers 5.1, 5.3, 5.5 to 5.8 and 5.10 to 5.13 (refer to Table 5B)) were applied over soybean plants at V2 stage inside a spray chamber. After a drying period, a first portion of the plants were infested with 10 3rd instar nymphs of E. heros per plant, with three repetitions per treatment with a total of 30 nymphs per treatment. After the drying period, a second portion of the plants were infested with 10 adults of E. heros per plant, with three repetitions per treatment with a total of 30 adults per treatment. Infested plants were maintained in a greenhouse controlled at a temperature of 26° C. Mortality was evaluated after 72 hours. The results are reported in Tables 5G (nymphs) and 5H (adults).

D. melachantus adults = experiment: Example 5E, protocol F: mortality on sprayed plants after 72 hours, synergy by Colby equation; parameters: concentration or dose not given beside the values; conditions: Table 5J
Procedure: as §1, §2, §3, §4, §5
(§6) Morality on D. melachantus was evaluated according to protocols E and F (refer to Table 5B). In the evaluation method, insecticides (treatment numbers 5.1, 5.3, 5.5 to 5.8 and 5.10 to 5.13 (refer to Table 5B)). Evaluation was done according to the method of Example 5D. The results are reported in Tables 5I (nymphs) and 5J (adults).

H. armigera = experiment: Example 5B, protocol B: mortality on treated leaves, synergy by Colby equation; conditions: for Mortality: mean mortality after 96 hours, substance and dose g a.i./ha per treatment number of Table 5B
Procedure: as §1, §2
(§7) Treatments were applied inside a sprayer chamber simulating a volume of 200 l/ha over soybean plants. After a drying period, treated leaves were removed from the plants and placed inside 16 well trays containing agar solution (2%) covered with filter paper. Two 16 well trays were prepared for each treatment (32 larvae/treatment). One 3rd instar larva from laboratory strains was placed in each well over the treated leaf. Trays were kept under controlled conditions of 25° C., photoperiod of 14:10 hours, and 60% RH. Morality was evaluated after 96 hours. Mortality is defined as dead and moribund larvae.
as §3, §4
Morality on H. armigera was evaluated according to protocol B (refer to Table 5B) using treatment numbers 5.1 to 5.13 (refer to Table 5B).

C. includens = experiment: Example 5A, protocol A: mortality on treated leaves, synergy by Colby equation; conditions: for Mortality: mean mortality after 96 hours, substance and dose g a.i./ha per treatment number of Table 5B
Procedure: as §1, §2, §7, §3, §4
Morality on C. includens was evaluated according to protocol A (refer to Table 5B) using treatment numbers 5.1, 5.3, 5.5 to 5.8 and 5.10 to 5.13 (refer to Table 5B). The results are reported in Table 5C below where mortality is the mean mortality, the E value was calculated by the Colby equation, and the synergy value is determined by dividing the mean mortality (%) by the expected value (E).

[1] = test system: E. heros 3rd instar nymphs; experiment: Example 5D, protocol C: mortality on sprayed soybean plants after 72 hours, synergy by Colby equation; conditions: for Mortality: E. heros 3rd instar nymphs, sprayed soybean plants (V2), after 72 hours, Table 5G
Procedure: as §1, §2, §3, §4, §5

[2] = test system: S. frugiperda laboratory strain (susceptible); experiment: Example 5C, protocol G: mortality on treated leaves, synergy by Colby equation; conditions: 96 hours, substance and dose g a.i./ha per treatment number of Table 5B
Procedure: as §1, §2, §7, §3, §4
(§8) Morality on S. frugiperda was evaluated according to protocols G and H (refer to Table 5B), but where two S. frugiperda strains were tested: a laboratory strain (susceptible) and a field strain in F3 generation sampled in the 2018/2019 season in Sinop-MT region using treatment numbers 5.1 to 5.10 (refer to Table 5B). The results are reported in Tables 5E (Laboratory Strain) and 5F (Filed Strain).

[3] = test system: S. frugiperda field strain; experiment: Example 5C, protocol H: mortality on treated leaves, synergy by Colby equation; conditions: for Mortality: field strain, 96 hours, substance and dose g a.i./ha per treatment number of Table 5B
Procedure: as §1, §2, §7, §3, §4, §8

[4] = test system: D. melachantus 3rd instar nymphs; experiment: Example 5E, protocol E: mortality on sprayed plants after 72 hours, synergy by Colby equation; parameters: Mortality: concentration or dose not given beside the values; conditions: for Mortality: D. melachantus nymphs, sprayed plants, after 72 hours, Table 5I
Procedure: as §1, §2, §3, §4, §5, §6

Cc1c(COC(=O)[C@@H]2[C@H](/C=C(\Cl)C(F)(F)F)C2(C)C)cccc1-c1ccccc1 (racemic) [Treatment 5.7, Bifenthrin]
Mortality (E. heros adults; listed as 5.7): 56.7%
Mortality (D. melachantus adults; listed as 5.7): 100%
Mortality (H. armigera; listed as 5.7): 0%
Mortality (C. includens; listed as 5.7): 78.1%
Mortality ([1]; listed as 5.7): 76.7%
Mortality ([2]; listed as 5.7): 96.9%
Mortality ([3]; listed as 5.7): 43.8%
Mortality ([4]; listed as 5.7): 100%

CNC(=O)c1cc(Cl)cc(C)c1NC(=O)c1cc(Br)nn1-c1ncccc1Cl [Treatment 5.3, Chlorantraniliprole]
Mortality (E. heros adults): 3.3%
Mortality (D. melachantus adults): 0%
Mortality (H. armigera; listed as 5.3): 100%
Mortality (C. includens): 100%
Mortality [1]: 0%
Mortality ([2]; listed as 5.3): 100%
Mortality ([3]; listed as 5.3): 59.4%
Mortality [4]: 7.0%

Cc1c(COC(=O)[C@@H]2[C@H](/C=C(\Cl)C(F)(F)F)C2(C)C)cccc1-c1ccccc1 (racemic) [Treatment 5.6, Bifenthrin]
Mortality (E. heros adults; listed as 5.6): 30.0%
Mortality (D. melachantus adults; listed as 5.6): 70.0%
Mortality (H. armigera; listed as 5.6): 0%
Mortality (C. includens; listed as 5.6): 68.8%
Mortality ([1]; listed as 5.6): 43.3%
Mortality ([2]; listed as 5.6): 78.1%
Mortality ([3]; listed as 5.6): 15.6%
Mortality ([4]; listed as 5.6): 70.0%

Cc1c(COC(=O)[C@@H]2[C@H](/C=C(\Cl)C(F)(F)F)C2(C)C)cccc1-c1ccccc1 (racemic) [Treatment 5.5, Bifenthrin]
Mortality (E. heros adults; listed as 5.5): 3.3%
Mortality (D. melachantus adults; listed as 5.5): 39.3%
Mortality (H. armigera; listed as 5.5): 0%
Mortality (C. includens; listed as 5.5): 34.4%
Mortality ([1]; listed as 5.5): 38.9%
Mortality ([2]; listed as 5.5): 53.1%
Mortality ([3]; listed as 5.5): 3.1%
Mortality ([4]; listed as 5.5): 56.7%

Cc1c(COC(=O)[C@@H]2[C@H](/C=C(\Cl)C(F)(F)F)C2(C)C)cccc1-c1ccccc1 (racemic) [Treatment 5.8, Bifenthrin]
Mortality (E. heros adults; listed as 5.8): 80.0%
Mortality (D. melachantus adults; listed as 5.8): 100%
Mortality (H. armigera; listed as 5.8): 9.4%
Mortality (C. includens; listed as 5.8): 78.1%
Mortality ([1]; listed as 5.8): 85.2%
Mortality ([2]; listed as 5.8): 93.8%
Mortality ([3]; listed as 5.8): 43.8%
Mortality ([4]; listed as 5.8): 100%

CNC(=O)c1cc(Cl)cc(C)c1NC(=O)c1cc(Br)nn1-c1ncccc1Cl [Chlorantraniliprole, 5-bromo-N-[4-chloro-2-methyl-6-(methylcarbamoyl)phenyl]-2-(3-chloropyridin-2-yl)pyrazole-3-carboxamide]
H. armigera control, in words (H. armigera; 7.5 g a.i./ha): most effective
control of C. includens, in words (C. includens; 7.5 g a.i./ha): most effective
control of E. heros, in words ([1]; nymphs and adults (protocols C and D)): did not control
control of D. melacanthus, in words ([4]; nymphs and adults (protocols E and F)): did not control

Cc1c(COC(=O)[C@@H]2[C@H](/C=C(\Cl)C(F)(F)F)C2(C)C)cccc1-c1ccccc1 (racemic) [Bifenthrin, 2-methylbiphenyl-3-ylmethyl (Z)-(1RS)-cis-3-(2-chloro-3,3,3-trifluoroprop-1-enyl)-2,2-dimethyl cyclopropanecarboxylate]
H. armigera control, in words (H. armigera; even at a higher dose of 60 g a.i./ha, resistance to pyrethroids): lower control
control of S. frugiperda, in words ([3]; lower doses, especially on the field strain): lower control

CNC(=O)c1cc(Cl)cc(C)c1NC(=O)c1cc(Br)nn1-c1ncccc1Cl [Treatment 5.2, Chlorantraniliprole]
Mortality (H. armigera; listed as 5.2): 84.4%
Mortality ([2]; listed as 5.2): 96.9%
Mortality ([3]; listed as 5.2): 40.6%

Cc1c(COC(=O)[C@@H]2[C@H](/C=C(\Cl)C(F)(F)F)C2(C)C)cccc1-c1ccccc1 (racemic) [Treatment 5.4, Bifenthrin]
Mortality (H. armigera; listed as 5.4): 0%
Mortality ([2]; listed as 5.4): 34.4%
Mortality ([3]; listed as 5.4): 3.1%
